Consider 5 compounds from patent US5834431A, “Des-Arg^9 -BK antagonists” (Cortech, Inc., priority 1995, dated 1998).

pIC50: −log10 of the molar value. Square brackets hold non-standard residues; d marks the D form. Ends that are not written are not given here. Peptide text beside a SMILES is read from it. Oic = O=C(O)[C@@H]1C[C@@H]2CCCC[C@@H]2N1; dIgl = N[C@@H](C(=O)O)C1Cc2ccccc2C1; Gly(cPent) = N[C@H](C(=O)O)C1CCCC1; Igl = N[C@H](C(=O)O)C1Cc2ccccc2C1; Hyp = O=C(O)[C@@H]1C[C@@H](O)CN1; dTic = O=C(O)[C@H]1Cc2ccccc2CN1

Data set [1] concerns angiogenic response elicited by bradykinin. The settings on record: literature, Hu et al. 1993; cited from earlier work.
Data set [2] deals with type I diabetic hyperglycemia. To be noted: literature, Zuccollo et al. 1995; cited from earlier work.
The target of data set [3] is T1, BK1 (hypotensive response to desArg9BK) (Canis lupus familiaris, UniProt Q9BDQ5).
T1 construct: Mongrel dogs of either sex, weight range 10-15 kg were used; from tissue; host or cells: whole anaesthetized mongrel dog (in vivo blood pressure)
T1 sequence (Q9BDQ5 1-350): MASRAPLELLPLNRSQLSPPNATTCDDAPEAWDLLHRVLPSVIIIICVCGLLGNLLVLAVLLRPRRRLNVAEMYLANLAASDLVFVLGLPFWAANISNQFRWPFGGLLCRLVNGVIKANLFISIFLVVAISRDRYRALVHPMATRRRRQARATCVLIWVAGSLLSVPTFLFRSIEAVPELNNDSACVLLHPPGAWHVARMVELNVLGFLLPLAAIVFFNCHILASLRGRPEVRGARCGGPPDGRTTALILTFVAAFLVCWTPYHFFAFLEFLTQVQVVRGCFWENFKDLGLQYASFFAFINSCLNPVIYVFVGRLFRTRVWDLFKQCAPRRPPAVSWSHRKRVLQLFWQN
Description: In vivo inhibition of hypotensive response to desArg9BK in anaesthetized dogs. Also noted: species or system Mongrel dogs. To be noted: dog. Here is the method: Mongrel dogs of either sex, weight range 10-15 kg were used. These were anaesthesized with pentobarbitone, 30 mg/kg i.v. and catheters placed in one femoral artery and both femoral veins for the recording of blood pressure and infusion and injection of compounds. […] After the end of the infusion of the highest dose of the antagonist compound, BK and des-Arg^9 -BK were injected at intervals for up to four hours.

The nature of data set [4]: Stability in rat lung membranes. The data set is classed as in vitro ADME. Here is the method:
Rat or human lung (3 gm) was prepared as a modification of […] et al. (Biochemical Pharmacology 33: 3471 (1984)). Tissues were removed and placed in cold phosphate-saline (3×). Material was minced and homogenized in 20 volumes (w/v) of 0.5 mM tris HCl. 50 mM mannitol, pH 7.0. Calcium chloride was added to the homogenate to give a final concentration of 10 mM. The material was filtered through a guaze pad to remove loose connective tissue. Filtrate was spun in a Beckman centrifuge (3,000×g) for thirty minutes. The resultant supernatant fraction was spun in a Beckman L7-65 ultracentrifuge (43,000×g, 30 min) to spin down membranes. The centrifugation step was repeated on the membrane pellet fraction two additional times. The pellet was reconstituted in 4 ml of the tris mannitol buffer and stored at -70° C. Protein was determined by the method of Bradford. Bradykinin antagonists were prepared at 1 mM concentration in a phosphate-buffered saline solution (phosphate saline, 2.6 mM KH2 PO4, 10.42 mM Na2 HPO4, 0.1454M NaCl, pH. 7.2). Aliquots (10 μl) of the compound were added to 90 μl of the tissue samples in Eppendorf tubes. Samples were incubated various time points at 37° C. At each time point protein was precipitated by addition of acetonitrile, acetonitrile made 0.1M HCl or 10% (v/v) trifluoroacetic acid in water (100 μl). Tubes were spun (14,000 rpm, 10 min) in an Eppendorf Model 5415C microcentrifuge. Samples were filtered and analyzed using reverse-phase HPLC (C18 column 4.6×150 mm) and a 13.5% to 90% acetonitrile gradient in 0.1% TFA. Compound half-life was determined by analysis of raw data using ENZFIT application software (Elsevier).

The nature of data set [5]: Stability in rat kidney brush border microvilli. Type of data set: in vitro ADME. Here is the method:
Kidney membranes were prepared as indicated in the literature (Booth et al., Biochemical Journal, 142: 575 (1974)). Rat kidneys were obtained after sacrifice and rinsed in several volumes of a 2 mM tris, 10 mM mannitol buffer, pH 7.1. Cortical material was carefully removed and homogenized in ten volumes of the buffer. The homogenate was spun in a IEC Centra-8 refrigerated centrifuge. (4° C., 200×g). The supernatant was made 10 mM with respect to MgCl2. The supernatant material was subjected to further centrifugation as indicated: [drawing 2] Pellet resuspended in tris-mannitol buffer. Protein concentration was determined by the method of Bradford (Anal. Biochem., 72:248-254 (1976)). Bradykinin antagonists were prepared at 1 mM concentration in a phosphate-buffered saline solution (phosphate saline, 2.6 mM KH2 PO4, 10.42 mM Na2 HPO4, 0.1454M NaCl, pH. 7.2). Aliquots (10 μl) of the compound were added to 90 μl of the tissue samples in Eppendorf tubes. Samples were incubated various time points at 37° C. At each time point protein was precipitated by addition of acetonitrile, acetonitrile made 0.1M HCl or 10% (v/v) trifluoroacetic acid in water (100 μl). Tubes were spun (14,000 rpm, 10 min) in an Eppendorf Model 5415C microcentrifuge. Samples were filtered and analyzed using reverse-phase HPLC (C18 column 4.6×150 mm) and a 13.5% to 90% acetonitrile gradient in 0.1% TFA. Compound half-life was determined by analysis of raw data using ENZFIT application software (Elsevier).

Data set [6] addresses T2, B2 receptor (Homo sapiens, UniProt P30411).
T2 construct: expressed in transfected cells
T2 sequence (P30411 1-391): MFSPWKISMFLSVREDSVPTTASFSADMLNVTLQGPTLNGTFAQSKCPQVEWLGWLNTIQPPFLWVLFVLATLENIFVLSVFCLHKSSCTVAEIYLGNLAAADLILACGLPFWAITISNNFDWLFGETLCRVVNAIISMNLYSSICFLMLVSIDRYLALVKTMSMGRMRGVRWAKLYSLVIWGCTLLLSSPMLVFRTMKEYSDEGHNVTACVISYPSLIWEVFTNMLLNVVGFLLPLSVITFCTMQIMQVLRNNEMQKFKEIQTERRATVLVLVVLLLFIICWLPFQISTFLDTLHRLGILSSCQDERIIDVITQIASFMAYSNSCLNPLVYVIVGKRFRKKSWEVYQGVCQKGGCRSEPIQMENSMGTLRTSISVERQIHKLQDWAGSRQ
Description: Human B2 binding, human BK2 clone membranes, 3H-Bradykinin. To be noted: 0.3 nM 3H-Bradykinin, i.a. = inactive, read-out: Human Binding - pIC50 B2 (converted). Here is the method: (§1) Human lung fibroblasts IMR-90 cells were obtained from ATCC and propagated in DMEM media in […] roller bottles until confluent. Three hours prior to harvesting, the cells were treated with Interleukin lb (200 pg/ml). Human BK2 clones were propagated in F12 media until confluent. Preparation of membranes for binding assays was carried out by scraping cells from roller bottles in ice cold PBS and centrifuging at 1000 ×g, at 4° C. for 15 minutes. The supernatant was discarded and pellet resuspended in Buffer A consisting of 25 mM TES(pH 6.8) with 2 uM 1,10-Phenanthroline, and centrifuged at 27,000 ×g for 15 min. this was then repeated. The final pellet was resuspended in Buffer B (Buffer A with 2 uM Captopril, 140 ug/Ml Bacitracin, 0.1%BSA), and stored in 1 ml aliquots, frozen at -20° C. until needed.
Binding assays were performed by incubating human clone membranes with 0.3 nM ^3 H-Bradykinin or IMR-90 membranes with 0.5 nM ^3 H-des-Arg^9 -Kallidin in the presence of the peptides in assay buffer (Buffer B with 1 mM Dithiotreitol), at room temperature, for 45 minutes. All test compound dilutions were in triplicate. Assays were harvested by quick filtration in a Tomtec Harvester 96, with ice cold wash buffer consisting of 10 mM Tris/HCl, pH 7.5, 100 mM NaCl, 0.02%BSA, onto Wallec printed glassfiber Filtermat "B", which had been pre-soaked with 0.1% PEI and previously air-dried. Filtermats were counted in 9.5 mls Wallec Beta-Plate Scint, in Wallec 1450 MicroBeta Counter.

The target in the next data set is T3, B1 receptor (Homo sapiens, UniProt P46663).
T3 construct: Human lung fibroblasts IMR-90 cells were obtained from ATCC and propagated in DMEM media; host or cells: IMR-90 human lung fibroblasts, treated with interleukin 1b three hours before harvest; membranes
T3 sequence (P46663 1-353): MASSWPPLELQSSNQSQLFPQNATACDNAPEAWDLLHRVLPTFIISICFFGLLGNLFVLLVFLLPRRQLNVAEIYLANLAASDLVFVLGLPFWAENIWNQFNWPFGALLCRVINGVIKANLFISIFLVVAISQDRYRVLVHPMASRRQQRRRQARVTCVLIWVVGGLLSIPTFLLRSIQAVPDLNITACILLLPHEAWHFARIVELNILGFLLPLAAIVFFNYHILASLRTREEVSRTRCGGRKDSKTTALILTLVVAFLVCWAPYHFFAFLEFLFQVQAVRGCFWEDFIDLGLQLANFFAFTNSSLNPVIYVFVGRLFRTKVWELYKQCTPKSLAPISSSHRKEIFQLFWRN
Put plainly: Human B1 binding, IL-1b-treated IMR-90 membranes, 3H-des-Arg9-Kallidin. The settings on record: 0.5 nM 3H-des-Arg9-Kallidin, pIC50 = -log of molar IC50. Here is the method:
as §1
Binding assays were performed by incubating human clone membranes with 0.3 nM ^3 H-Bradykinin or IMR-90 membranes with 0.5 nM ^3 H-des-Arg^9 -Kallidin in the presence of the peptides in assay buffer (Buffer B with 1 mM Dithiotreitol), at room temperature, for 45 minutes. All test compound dilutions were in triplicate. Assays were harvested by quick filtration in a Tomtec Harvester 96, with ice cold wash buffer consisting of 10 mM Tris/HCl, pH 7.5, 100 mM NaCl, 0.02%BSA, onto Wallec printed glassfiber Filtermat "B", which had been pre-soaked with 0.1% PEI and previously air-dried.

In data set [7] the target is T4, B2 receptor (Cavia porcellus, UniProt O70526).
T4 construct: from tissue
T4 sequence (O70526 1-372): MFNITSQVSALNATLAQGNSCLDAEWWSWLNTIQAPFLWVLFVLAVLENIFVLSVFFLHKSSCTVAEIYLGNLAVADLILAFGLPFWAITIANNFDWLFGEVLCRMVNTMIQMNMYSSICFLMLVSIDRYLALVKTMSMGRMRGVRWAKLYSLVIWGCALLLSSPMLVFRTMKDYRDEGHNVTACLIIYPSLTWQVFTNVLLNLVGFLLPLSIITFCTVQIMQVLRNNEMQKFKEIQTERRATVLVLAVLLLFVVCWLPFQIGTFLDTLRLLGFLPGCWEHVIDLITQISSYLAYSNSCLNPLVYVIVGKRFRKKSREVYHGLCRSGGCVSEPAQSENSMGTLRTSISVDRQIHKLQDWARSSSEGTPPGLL
Description: GPI binding B2. To be noted: i.a. = inactive, read-out: GPI Binding - pIC50 B2 (converted).

Turning to [Leu^8, des-Arg^9 ]-bradykinin, the “effect on angiogenic response elicited by bradykinin” value in data set [1] is “inhibit the angiogenic response elicited by bradykinin”. The “effect on type I diabetic hyperglycemia” value in data set [2] is “cause a reduction in type I diabetic hyperglycemia”.

For `CC(C)C[C@H](NC(=O)[C@@H]1CCCN1C(=O)[C@H](CO)NC(=O)[C@H](Cc1ccccc1)NC(=O)CNC(=O)[C@@H]1CCCN1C(=O)[C@@H]1CCCN1C(=O)[C@H](CCCN=C(N)N)NC(=O)[C@@H](N)CCCCN)C(=O)O` [CP-0298, desArg9 Lys0 Leu8 BX, reference compound], in data set [3] (infusion, dose of antagonist to inhibit hypotensive response to desArg9BK by 50%), the “BK1 ED50” value was 0.546 ± .16 µg/kg/min. For the same compound, the results for the Half-Life in data set [4] and in data set [5] were 0.085 h and 0.020 h, respectively.

For the compound `N=C(N)NCCC[C@@H](N)C(=O)N[C@@H](CCCNC(=N)N)C(=O)N1CCC[C@H]1C(=O)N1C[C@H](O)C[C@H]1C(=O)NCC(=O)N[C@H](C(=O)N[C@@H](CO)C(=O)N[C@@H](C(=O)N1[C@H](C(=O)O)C[C@@H]2CCCC[C@@H]21)C1Cc2ccccc2C1)C1Cc2ccccc2C1` [B9812, DArg-Arg-Pro-Hyp-Gly-Igl-Ser-DIgl-Oic] (H-[dR]RP[Hyp]G[Igl]S[dIgl][Oic]-OH), the “BK1 ED50” value in data set [3] (ED50 expressed in pmol) is given as 10.7 pmol. Further, the “Duration of Action (following 20 min of highest dose)” value in data set [3] (return of agonist response after end of infusion) is recorded as “B1 still 100% blocked at 4.6 h”. Further, the “Selectivity (BK, desArg9BK, ACh, NE, Sp, AII)” value in data set [3] (which agonist responses are blocked at the stated infusion dose) was “B1 only at 1.0”. Also, the Half-Life in data set [4] and in data set [5] was above 6 h in each case.

Turning to “RPPGFSPFR [Bradykinin, Arg^1 -Pro^2 -Pro^3 -Gly^4 -Phe^5 -Ser^6 -Pro^7 -Phe^8 -Arg^9, reference compound]”, the Half-Life in data set [4] (Rat Lung Membranes, 37° C.) came to 0.13 h; in data set [5] (Rat kidney Brush Border, 37° C.) it was 0.13 h.

For the compound `N=C(N)NCCC[C@@H](N)C(=O)N[C@@H](CCCNC(=N)N)C(=O)N1CCC[C@H]1C(=O)N1C[C@H](O)C[C@H]1C(=O)NCC(=O)N[C@H](C(=O)N[C@@H](CO)C(=O)N1Cc2ccccc2C[C@@H]1C(=O)N[C@H](C(=O)O)C1CCCC1)C1CCCC1` [B9066, DArg-Arg-Pro-Hyp-Gly-Cpg-Ser-DTic-Cpg] (H-[dR]RP[Hyp]G[Gly(cPent)]S[dTic][Gly(cPent)]-OH), the Half-Life in data set [4] and in data set [5] was above 6 h throughout. Moreover, the figures for the IC50 at B2 receptor [6] and on B2 receptor [7] were 1260 nM and 2510 nM, respectively. For the same compound, the negative-log IC50 (pIC50) on B1 receptor is 9.30.
